{
  "source": "ChEMBL document CHEMBL1143860",
  "about": "“Synthesis and biological activity of phosphatidylinositol-3,4,5-trisphosphorothioate” (Bioorg Med Chem Lett, 2008)",
  "tested_on": "A6",
  "assay": "Agonist activity at […] expressed in A6 cells assessed as increase in insulin-stimulated sodium transport at 50 uM",
  "assay_type": "functional, cell-based",
  "note": "Calls of active or inactive are those of the source. No cut-off for these calls is given here.",
  "data": [
    {"smiles": "CCCCCCCCCCCCCCCC(=O)OC[C@H](COP(=O)(O)O[C@H]1[C@H](O)[C@@H](OP(O)(O)=S)[C@H](OP(O)(O)=S)[C@@H](OP(O)(O)=S)[C@H]1O)OC(=O)CCCCCCCCCCCCCCC", "values": [
      {"measurement": "Activity", "result": "Active"}
    ]}
  ]
}
